The numbers were not newly measured in US9333175B2, “Controlled release levetiracetam formulations and methods for producing the same” (Mylan Inc., priority 2010, dated 2016), which cites them from elsewhere.

The conditions of this series: A. J. Gower et al., Eur. J. Pharmacol., 222, 1992, 193-203.

Structures are written as SMILES.

With `CC[C@H](C(N)=O)N1CCCC1=O` [(R)-(+)-alpha-ethyl-2-oxo-1-pyrrolidine acetamide], the “activity in the treatment of epilepsy” value was “completely lacks activity”.
As for `CC[C@@H](C(N)=O)N1CCCC1=O` [Levetiracetam, (S)-(−)-alpha-ethyl-2-oxo-1-pyrrolidine acetamide], the “activity in the treatment of epilepsy” value is “effective in the treatment of epilepsy”.
